Results as given in PMC5729429, “Gimatecan exerts potent antitumor activity against gastric cancer in vitro and in vivo via AKT and MAPK signaling pathways” (Journal of Translational Medicine, 2017).
Counter-ions that a name gives are not always drawn.

Assays:
[1] = test system: Bak, Bcl-2, cleaved PARP; assay: Western blot of Bak, Bcl-2, PARP in GC cells; assay type: cell-based, human; conditions: SNU-1 and HGC27
Experimental: SNU-1, HGC27 and NCI-N87 cells were starved in serum-free medium overnight, exposed to inhibitors for 48 h and harvested at 70–80% confluence. Total protein was extracted from cells or xenograft tissues on ice, using RIPA Lysis Buffer (Beyotime, Shanghai, China) supplemented with complete protease inhibitor and phosphatase inhibitor cocktail (Roche, Basel, Switzerland). Protein concentration was measured using a BCA Protein Assay Kit (Beyotime, Shanghai, China), and 50 μg protein from each sample was separated by 10% SDS-PAGE. After transfer to nitrocellulose membranes (GE Healthcare, Piscataway, NJ), samples were incubated with corresponding primary antibodies diluted in 5% BSA at 4 °C overnight and then with secondary antibodies at room temperature for 1 h. […] Western-blotting bands were quantified and normalized by ImageJ software.
Cells were treated with gimatecan (0–1 µM) and irinotecan (0–1 µM) for 24 h and stained with Annexin V-PE/7-AAD. Sums of percentages of early apoptosis (Q3) and late apoptosis (Q2) were calculated as the total apoptosis ratios. c, d Pro- and anti-apoptotic proteins including Bcl-2, Bak, PARP and cleaved PARP were assessed by western-blotting in SNU-1 and NCI-N87 cells. Western-blotting bands were quantified and normalized by ImageJ. […]

[2] = test system: HGC27 cells; assay: Cell viability assay (CCK-8), HGC27; assay type: cell-based; conditions: Homo sapiens, HGC-27, Fig. S1A 48 h exposure, 0–1 µM, read-out: IC50 antiproliferative effect
Experimental: (§1) Human GC cell lines SNU-1, HGC27 and MGC803 were purchased from Peking Union Medical College, and the NCI-N87 cell line was a gift from You-yong Lv, Ph.D. (Peking University Cancer Hospital and Institute). Cells were cultured in RPMI 1640 medium and Dulbecco’s Modified Eagle Medium (Gibco-BRL, MD, USA), respectively, supplemented with 10% fetal bovine serum (Gibco-BRL), 100 U/ml penicillin (Gibco-BRL) and […] streptomycin (Gibco-BRL). Cells were incubated in a humidified incubator (37 °C) supplemented with 5% CO2.
(§2) SNU-1, HGC27, MGC803 and NCI-N87 cells (5000 cells/well) were seeded in 96-well plates and incubated overnight in complete medium, followed by exposure to gimatecan (0–1 µM) or irinotecan (0–1 µM) for 24, 48, or 72 h. Cell viability was measured using a Cell Counting Kit-8 (Dojindo, Kumamoto, Japan) according to the manufacturer’s instructions. Absorbance at 450 nm was measured using a microplate spectrophotometer. All experiments were repeated at least three times.

[3] = test system: SNU-1 cells; assay: Cell viability assay (CCK-8), SNU-1; assay type: cell-based; conditions: Homo sapiens, SNU1, Fig. 1a 48 h exposure, 0–1 µM, read-out: IC50 antiproliferative effect
Experimental: as §1, §2

| SMILES | Bak, Bcl-2 and PARP protein after treatment [1] | IC50 [2] [nM] | IC50 [3] [nM] |
| --- | --- | --- | --- |
| CC[C@@]1(O)C(=O)OCc2c1cc1n(c2=O)Cc2c-1nc1ccccc1c2/C=N/OC(C)(C)C [Gimatecan, 7-t-butoxyiminomethylcamptothecin] | Bak and cleaved PARP expression was increased and Bcl-2 expression was inhibited | 1.63 | 1.95 |
| CCc1c2c(nc3ccc(OC(=O)N4CCC(N5CCCCC5)CC4)cc13)-c1cc3c(c(=O)n1C2)COC(=O)[C@]3(O)CC [Irinotecan, irinotecan hydrochloride] | apoptosis was not induced | 152 | 3250 |
